Assay results: patent publication US20050239873A1 (priority 1999, published 2005)

Experiments:
[1] = tested on: NB4, an acute promyelocytic cell line; assay: Propidium iodide exclusion cytotoxicity; type: cell-based, human
Description: (§1) Cell survival was assayed by exclusion of propidium iodide (PI; 10 μg/ml) by unfixed cells. Annexin V-FITC (Pharmingen) or 3, 3′-dihexyloxacarbocyanine iodide (DiOC6(3); Molecular Probes) staining was analyzed together with PI to discriminate early apoptotic cells. Apoptotic cells were also measured as sub-G1 events among ethanol-fixed cells stained with 10 μg/ml PI. All cell samples were analyzed using a benchtop FACSCalibur™ (Becton Dickinson, San Jose, Calif.). Flow data were analyzed using MultiCycle AV software (Phoenix Flow Systems). For intracellular pH measurements, cell pellets were washed once and resuspended in 2 ml of HEPES-buffered medium (no phenol red and no serum). Carboxy-SNARF-1-AM (Molecular Probes, 1 mM stock in DMSO, stored at −20° C.) was added to a final concentration of 10 μM, and the cells were incubated for 30 min at 37° C. Following incubation with SNARF, cells were sedimented and the pellets were held on ice. Immediately before analysis, pellets were resuspended in […] (HBSS; experimental buffer) or high-[K+] buffer containing nigericin (calibration samples).

[2] = tested on: leukemia and lymphoma cell lines (DHL4, Daudi, Ramos, Molt4 and Jurkat); assay: Propidium iodide exclusion cytotoxicity; type: cell-based, human; settings: 5 to about 20 μg/ml
Description: as §1

[3] = tested on: myeloid leukemia cell lines; assay: Propidium iodide exclusion cytotoxicity; type: cell-based, human; settings: 20 μg/ml, even after 48 h; seven or eight cell lines
Description: as §1

RPMI-8226 cells = assay: Metabolic studies: glucose depletion from media and intracellular pH; type: cell-based, human
Description: as §1
The analysis by flow cytometry (Becton Dickinson FACScan™) was done with excitation at 488 nm, and emission at 585 and 640 nm (corresponding to the H^+-bound and—free forms of carboxy-SNARF-1-AM, respectively). […]

S9 metabolism = type: in vitro ADME, human; settings: pH 7.4
Source text: All chemicals and solvents used for sample preparation and HPLC analysis were analytical grade. Acetonitrile, methanol, and phosphoric acid were purchased from Fisher Scientific (Atlanta, Ga.). Hepatic S9 fractions from male CD2F1 mice, male Sprague Dawley rats, male dogs, and male humans were purchased from In Vitro Technologies (Boston, Mass.). The National Cancer Institute provided samples of the test compounds and male CD2F1 mice. Fischer 344 rats with implanted jugular cannulas were obtained from Charles River Laboratories (Cambridge, Mass.). All animal use and care procedures were approved by the Institutional Committee on Animal Use and Care at the University of Alabama at Birmingham and conformed to the guidelines found in Guide for the Care and Use of Laboratory Animals, National Academy Press, 1996.
To evaluate metabolism of the test compounds by S9 fractions from various species, reaction systems maintained at 37° C. contained 2-OMe-A3 (500 ng/ml) and S9 (1 mg protein/ml) in 100 mM Tris buffer (pH 7.4). At selected times, triplicate portions of the mixtures were removed and processed for analysis, as described above.

## antimycin A
[1]
  sensitivity (PI exclusion): modestly antimycin-sensitive
[2]
  sensitivity (PI exclusion): sensitive
[3]
  sensitivity (PI exclusion): resistant

## 2-methoxy antimycin A [2-OMeA]
RPMI-8226 cells
  glycolysis (depletion of glucose from culture media, reduction in intracellular pH): stimulated glycolysis

## CCCC[C@H]1C(=O)OC(C)[C@H](NC(=O)c2cccc(NC=O)c2OC)C(=O)O[C@@H](C)C1OC(=O)CC(C)C (stereo partly drawn) [2-OMeA3, Antimycin A3 methyl ether]
S9 metabolism; 500 ng/ml, 37° C.
  half-life: only slightly less than that for the control
S9 metabolism; male, human, hepatic S9 fraction, 2000 ng/ml
  half-life at 2000 ng/ml: ~10 min
